Where two headings read alike, the source gives them in different places.
What was measured:
GluN1/GluN2A NMDARs [1] = biological target: T1, GluN1/GluN2A NMDARs (Rattus norvegicus, UniProt P35439+Q00959); assay: TEVC recordings of NMDAR currents from Xenopus laevis oocytes expressing GluN1/GluN2A; format: cell-based; conditions: for inhibition at 10 µM: TCN 201 10 μM; for inhibition of GluN1/GluN2A NMDAR-mediated currents: antagonist 10 μM; for IC50: minimum unconstrained, read-out: IC50 (concentration giving 50% of the maximal achievable inhibition)
T1 construct: expressed in transfected cells; host or cells: Xenopus laevis oocytes injected with cRNA (GluN1:GluN2 1:1)
Description: (§1) Nomenclature of NMDA receptor subunits follows [Collingridge et al. (2009)] and [Alexander et al. (2011)]. pSP64T-based plasmid constructs containing cDNA coding for rat GluN1-1a (i.e. the splice variant that lacks exon 5, but contains exons 21 and 22), hereafter termed GluN1 and wild-type rat GluN2A receptor subunits were prepared as described by ([Chen et al., 2005]). The rat GluN2B-containing cDNA expression vector was a gift by Stephen Traynelis (Emory University, Atlanta, GA). cRNA was synthesized as runoff transcripts as previously detailed ([Chen et al., 2005], [2008]; [Erreger et al., 2007]). Fluorescence intensity in ethidium bromide-stained agarose gels was employed to confirm the fidelity and yield of synthesized cRNAs. For recombinant receptor expression, GluN1 and GluN2 cRNAs were mixed at a nominal ratio of 1:1 and diluted with nuclease-free water to 5 ng μl^−1.
(§2) Oocytes (Stage V–VI) were removed from Xenopus laevis that had been killed in accordance with current UK Home Office protocols and defolliculated by initial collagenase treatment, then manually using forceps. 23–37 nl of cRNA mix was injected into oocytes which were subsequently maintained in Barth's solution (composition in mM: NaCl 88, KCl 1, NaHCO3 2.4, MgCl2 0.82, CaCl2 0.77, Tris-Cl 15, adjusted to pH 7.35 with NaOH and supplemented with 50 IU ml^−1 penicillin, 50 μg ml^−1 streptomycin, 50 μg ml^−1 tetracycline) for 24–48 h at 19 °C to allow for receptor expression and then stored at 4 °C until required for electrophysiological measurements.
(§3) Two-electrode voltage-clamp (TEVC) recordings were made using a GeneClamp 500 amplifier (Molecular Devices, Sunnyvale, CA) at room temperature (18–21 °C) from oocytes placed in a bath that was perfused with a solution comprising (in mM): NaCl 115, KCl 2.5, HEPES 10, BaCl2 1.8, EDTA 0.01; pH 7.4 with NaOH. Note EDTA was included to chelate contaminating low nanomolar levels of Zn^2+ that potently block of GluN2A-containing NMDARs in a voltage-independent manner. […] TEVC recordings were performed at −30 or −40 mV. Currents were filtered at 10 Hz and digitized online at 100 Hz, via a Digidata 1200 A/D interface (Molecular Devices, Union City, CA, USA), using WinEDR 3.1.9 software (Strathclyde Electrophysiology Software, Strathclyde University, UK).
The concentration of TCN 201 required to inhibit 50% (IC50) of agonist-evoked responses were determined by fitting data to the equation: I=I[B]∞+((I[B]0−I[B]∞)/(1+([B]/IC50)^nH)), where I is current response, I[B]0 is predicted maximum current in the absence of antagonist, I[B]∞ is the predicted minimum current in the presence of an infinite concentration of antagonist,[B] is the concentration of the antagonist and nH represents the Hill coefficient. To obtain an overall mean IC50 value, data points were normalised to the predicted maximum, pooled and refitted with the equation, with the maximum of each curve being constrained to asymptote to 1 but with the minimum fitted as a free parameter ([Otton et al., 2011]; [Wrighton et al., 2008]). In addition we fitted data points where both the maximum and minimum were constrained (to 1 and 0, respectively). The F ratio was calculated from the following equation: F=(SSR1−SSR2)/(DF1−DF2)/SSR2/DF2, where SSR1 and SSR2 are the sum of squared residuals of the constrained and unconstrained fits respectively and DF1 and DF2 are the degrees of freedom associated with each of the two fits.

GluN1/GluN2B NMDARs = biological target: T2, GluN1/GluN2B NMDARs (Rattus norvegicus, UniProt P35439+Q00960); assay: TEVC recordings of NMDAR currents from Xenopus laevis oocytes expressing GluN1/GluN2B; format: cell-based; conditions: TCN 201 10 μM, read-out: percentage inhibition of GluN1/GluN2B NMDAR-mediated currents
T2 construct: expressed in transfected cells; host or cells: Xenopus laevis oocytes injected with cRNA (GluN1:GluN2 1:1)
Description: as §1, §2
Two-electrode voltage-clamp (TEVC) recordings were made using a GeneClamp 500 amplifier (Molecular Devices, Sunnyvale, CA) at room temperature (18–21 °C) from oocytes placed in a bath that was perfused with a solution comprising (in mM): NaCl 115, KCl 2.5, HEPES 10, BaCl2 1.8, EDTA 0.01; pH 7.4 with NaOH. Note EDTA was included to chelate contaminating low nanomolar levels of Zn^2+ that potently block of GluN2A-containing NMDARs in a voltage-independent manner. […] TEVC recordings were performed at −30 or −40 mV. […]

GluN1/GluN2A NMDARs [2] = biological target: T1, GluN1/GluN2A NMDARs; assay: Schild analysis of antagonism at GluN1/GluN2A NMDARs (TEVC, oocytes); format: cell-based; conditions: for dose ratio (r) for shift in glycine potency: glutamate 30 μM; for Schild plot slope (free linear regression fit): 0.3, 1 and 3 μM TCN 201 data points
Description: as §1, §2, §3
TCN 201 antagonism at the GluN1/GluN2A NMDAR was examined by the Schild method ([Arunlakshana and Schild, 1959]; [Wyllie and Chen, 2007]). Dose-ratios (r) were defined as the ratio of the concentration of agonist, in the presence of a fixed concentration of antagonist, required to evoke the same response that was obtained in the absence of the antagonist. Dose-ratios from individual oocytes were determined at low agonist concentrations by constructing a partial concentration-response curve generated in the absence of antagonist and in the presence of a series of increasing antagonist concentrations. Due to the lack of sufficient perfusion lines, the dose-ratio estimate for the higher concentrations of TCN 201 (3 and 10 μM) was determined in a separate series of experiments from those carried out for the lower two concentrations (0.3 and 1 μM). Each series of two-point concentration-response curves were plotted on a log–log scale and the slope of the line used to fit the initial (antagonist-free) two-point concentration-response curve was used to fit the remaining curves. These parallel fits were used to calculate an overall mean r value for each antagonist concentration [B], which were then used to construct a Schild plot. On a log–log scale the gradient of the line used to fit such data is predicted by the Schild equation to be unity for a competitive antagonist. […] For ‘allosteric’ antagonism at equilibrium, the Schild plot deviates from unity at higher concentrations of antagonist ([Christopoulos and Kenakin, 2002]). […]

[3] = tested on: NMDAR-mediated currents in rat cortical neurones; assay: Whole-cell NMDA-evoked currents in cultured cortical neurones; format: cell-based; conditions: TCN 201 10 μM after ifenprodil, NMDA 50 μM, glycine 3 μM
[4] = Solubility in external recording solutions; format: physicochemical; conditions: external recording solutions for TEVC or whole-cell patch-clamp; from 3 mM DMSO stock
Description: Glutamate, glycine and D-serine were purchased from Sigma–Aldrich (Poole, UK). TCN 201, TCN 213, NMDA, ifenprodil, picrotoxin and tetrodotoxin were purchased from Tocris Bioscience (Bristol, UK). Stock solutions (3 mM) of TCN 201 were made by dissolving the antagonist in DMSO.

GluN1/GluN2A NMDARs [5] = biological target: T1, GluN1/GluN2A NMDARs; parameters: method as in McKay et al., 2012; conditions: ref McKay et al., 2012, cited from earlier work
[6] = glutamate 30 μM, D-serine 10 μM
[7] = glutamate 30 μM, D-serine 30 μM

T2 sequence (Q00960 27-1482, other chains not shown): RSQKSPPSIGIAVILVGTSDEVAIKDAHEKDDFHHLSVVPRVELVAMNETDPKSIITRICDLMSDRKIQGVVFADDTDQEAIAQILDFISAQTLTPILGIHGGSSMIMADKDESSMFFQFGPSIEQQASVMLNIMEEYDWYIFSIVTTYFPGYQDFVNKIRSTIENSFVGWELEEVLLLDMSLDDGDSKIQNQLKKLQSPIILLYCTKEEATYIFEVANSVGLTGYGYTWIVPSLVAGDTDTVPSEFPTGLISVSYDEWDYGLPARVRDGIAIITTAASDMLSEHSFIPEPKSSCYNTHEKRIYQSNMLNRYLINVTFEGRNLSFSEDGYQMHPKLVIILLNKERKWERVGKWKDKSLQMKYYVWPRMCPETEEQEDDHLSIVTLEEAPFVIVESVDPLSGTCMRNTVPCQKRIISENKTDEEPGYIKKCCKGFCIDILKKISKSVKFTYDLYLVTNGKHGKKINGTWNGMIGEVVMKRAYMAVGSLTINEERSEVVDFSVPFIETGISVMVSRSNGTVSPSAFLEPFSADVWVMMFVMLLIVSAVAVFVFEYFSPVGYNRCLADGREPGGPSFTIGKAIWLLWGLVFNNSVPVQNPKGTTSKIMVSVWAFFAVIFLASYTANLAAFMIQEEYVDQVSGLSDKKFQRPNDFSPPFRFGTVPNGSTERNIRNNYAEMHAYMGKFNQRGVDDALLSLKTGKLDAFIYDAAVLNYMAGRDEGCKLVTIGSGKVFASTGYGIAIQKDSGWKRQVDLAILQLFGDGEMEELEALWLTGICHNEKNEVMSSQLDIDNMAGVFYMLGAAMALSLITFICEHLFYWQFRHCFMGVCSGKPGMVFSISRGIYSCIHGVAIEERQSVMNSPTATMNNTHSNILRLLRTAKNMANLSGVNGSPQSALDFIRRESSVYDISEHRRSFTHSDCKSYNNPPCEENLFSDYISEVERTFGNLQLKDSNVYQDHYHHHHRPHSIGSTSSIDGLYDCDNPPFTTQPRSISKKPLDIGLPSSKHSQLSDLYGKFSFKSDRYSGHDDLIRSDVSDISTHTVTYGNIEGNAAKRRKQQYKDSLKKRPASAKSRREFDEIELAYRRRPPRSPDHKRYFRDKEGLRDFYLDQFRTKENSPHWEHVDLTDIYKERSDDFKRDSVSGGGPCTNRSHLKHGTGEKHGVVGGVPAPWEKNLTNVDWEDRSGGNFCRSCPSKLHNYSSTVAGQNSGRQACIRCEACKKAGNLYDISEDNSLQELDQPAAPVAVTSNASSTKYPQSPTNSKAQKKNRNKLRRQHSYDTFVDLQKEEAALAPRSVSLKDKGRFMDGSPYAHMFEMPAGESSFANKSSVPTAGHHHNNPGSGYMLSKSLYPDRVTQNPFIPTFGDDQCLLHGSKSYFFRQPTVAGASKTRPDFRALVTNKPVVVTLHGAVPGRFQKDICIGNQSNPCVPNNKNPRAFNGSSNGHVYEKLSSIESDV
T1 sequence (Q00959 20-1464 limits assumed, other chains not shown): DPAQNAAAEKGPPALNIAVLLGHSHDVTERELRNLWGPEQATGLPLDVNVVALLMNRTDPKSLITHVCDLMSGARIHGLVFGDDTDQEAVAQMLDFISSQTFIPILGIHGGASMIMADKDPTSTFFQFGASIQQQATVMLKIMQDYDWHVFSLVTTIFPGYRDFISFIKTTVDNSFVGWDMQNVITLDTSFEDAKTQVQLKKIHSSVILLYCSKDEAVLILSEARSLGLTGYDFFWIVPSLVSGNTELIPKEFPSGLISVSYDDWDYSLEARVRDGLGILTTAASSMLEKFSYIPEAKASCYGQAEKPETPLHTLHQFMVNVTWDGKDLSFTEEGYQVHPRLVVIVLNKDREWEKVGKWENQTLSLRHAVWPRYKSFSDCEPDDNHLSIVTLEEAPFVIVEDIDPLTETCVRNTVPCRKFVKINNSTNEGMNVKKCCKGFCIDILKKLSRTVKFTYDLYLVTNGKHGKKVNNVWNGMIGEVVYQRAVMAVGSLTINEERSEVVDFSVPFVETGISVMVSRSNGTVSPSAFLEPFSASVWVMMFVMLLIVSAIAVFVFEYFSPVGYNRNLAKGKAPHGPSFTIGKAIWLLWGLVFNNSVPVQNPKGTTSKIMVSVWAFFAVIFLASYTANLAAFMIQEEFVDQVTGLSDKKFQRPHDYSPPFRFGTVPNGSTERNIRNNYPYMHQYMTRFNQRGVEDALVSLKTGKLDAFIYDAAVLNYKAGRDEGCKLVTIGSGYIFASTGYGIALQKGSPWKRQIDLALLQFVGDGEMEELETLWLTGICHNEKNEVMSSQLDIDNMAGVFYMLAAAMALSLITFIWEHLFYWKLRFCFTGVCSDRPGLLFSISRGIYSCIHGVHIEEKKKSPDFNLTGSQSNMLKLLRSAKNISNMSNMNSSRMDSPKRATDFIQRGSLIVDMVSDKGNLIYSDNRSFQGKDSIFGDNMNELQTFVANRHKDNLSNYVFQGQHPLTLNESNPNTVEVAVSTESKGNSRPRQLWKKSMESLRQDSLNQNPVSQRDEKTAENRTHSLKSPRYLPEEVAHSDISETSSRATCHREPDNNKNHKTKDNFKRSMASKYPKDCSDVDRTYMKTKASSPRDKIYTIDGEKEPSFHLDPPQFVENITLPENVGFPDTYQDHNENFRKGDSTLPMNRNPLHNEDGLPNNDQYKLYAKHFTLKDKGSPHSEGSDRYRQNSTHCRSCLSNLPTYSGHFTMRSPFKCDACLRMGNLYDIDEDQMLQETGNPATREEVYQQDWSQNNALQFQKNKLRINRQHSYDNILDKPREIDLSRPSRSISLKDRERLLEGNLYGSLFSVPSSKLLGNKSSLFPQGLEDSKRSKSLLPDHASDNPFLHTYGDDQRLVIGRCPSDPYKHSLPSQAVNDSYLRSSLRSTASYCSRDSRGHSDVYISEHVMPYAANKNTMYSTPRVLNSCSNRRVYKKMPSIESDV

O=C(NNC(=O)c1ccc(CNS(=O)(=O)c2ccc(F)c(Cl)c2)cc1)c1ccccc1 [TCN 201, 3-chloro-4-fluoro-N-[4-[[2-(phenylcarbonyl)hydrazino]carbonyl]benzyl]benzenesulphonamide]
inhibition at 10 µM (GluN1/GluN2A NMDARs [1]; Fig. 2b, read-out: inhibition of glutamate/glycine-evoked GluN1/GluN2A NMDAR-mediated currents): 91.2 ± 1.1% | inhibition at 10 µM (GluN1/GluN2A NMDARs [1]; data not shown, read-out: inhibition of NMDA/glycine-evoked GluN1/GluN2A NMDAR-mediated currents): 69.9 ± 4.1% | inhibition at 10 µM (GluN1/GluN2A NMDARs [1]; glutamate 3 μM, glycine 30 μM, read-out: percentage inhibition of GluN1/GluN2A NMDAR-mediated currents): 54.5 ± 3.4% | inhibition at 10 µM (GluN1/GluN2A NMDARs [1]; glutamate 10 μM, glycine 30 μM, read-out: percentage inhibition of GluN1/GluN2A NMDAR-mediated currents): 52.2 ± 3.7% | inhibition at 10 µM (GluN1/GluN2A NMDARs [1]; glutamate 30 μM, glycine 30 μM (glutamate-dependency series), read-out: percentage inhibition of GluN1/GluN2A NMDAR-mediated currents): 45.8 ± 2.8% | inhibition of GluN1/GluN2A NMDAR-mediated currents (GluN1/GluN2A NMDARs [1]; glutamate 30 μM, glycine 10 μM): 82.4 ± 1.1% | inhibition of GluN1/GluN2A NMDAR-mediated currents (GluN1/GluN2A NMDARs [1]; glutamate 30 μM, glycine 30 μM): 50.7 ± 1.1% | Hill slope (GluN1/GluN2A NMDARs [1]; glutamate 30 μM, D-serine 3 μM): 1.57 ± 0.078 | IC50 (GluN1/GluN2A NMDARs [1]; glutamate 30 μM, D-serine 3 μM): 326 ± 18 nM | Hill slope (GluN1/GluN2A NMDARs [1]; [6]): 1.33 ± 0.21 | IC50 (GluN1/GluN2A NMDARs [1]; [6]): 816 ± 231 nM | Hill slope (GluN1/GluN2A NMDARs [1]; [7]): 1.17 ± 0.07 | IC50 (GluN1/GluN2A NMDARs [1]; [7]): 1920 ± 250 nM | Hill slope (GluN1/GluN2A NMDARs [1]; glutamate 30 μM, glycine 3 μM): 1.42 ± 0.061 | IC50 (GluN1/GluN2A NMDARs [1]; glutamate 30 μM, glycine 3 μM): 446 ± 26 nM | Hill slope (GluN1/GluN2A NMDARs [1]; glutamate 30 μM, glycine 10 μM): 1.49 ± 0.21 | IC50 (GluN1/GluN2A NMDARs [1]; glutamate 30 μM, glycine 10 μM): 746 ± 133 nM | Hill slope (GluN1/GluN2A NMDARs [1]; glutamate 30 μM, glycine 30 μM): 1.17 ± 0.11 | IC50 (GluN1/GluN2A NMDARs [1]; glutamate 30 μM, glycine 30 μM): 3890 ± 1060 nM | predicted maximal inhibition (GluN1/GluN2A NMDARs [1]; saturating glycine (or D-serine), from fits with unconstrained minima): around 40% | inhibition at 10 µM (GluN1/GluN2B NMDARs; glycine 3 μM): 1.8 ± 0.6% | inhibition at 10 µM (GluN1/GluN2B NMDARs; glycine 10 μM): 3.1 ± 1% | inhibition at 10 µM (GluN1/GluN2B NMDARs; glycine 30 μM): 3.1 ± 0.8% | dose ratio (r) for shift in glycine potency (GluN1/GluN2A NMDARs [2]; 0.3 μM TCN 201): 5.19 ± 0.4 | dose ratio (r) for shift in glycine potency (GluN1/GluN2A NMDARs [2]; 1 μM TCN 201): 16.7 ± 2.1 | dose ratio (r) for shift in glycine potency (GluN1/GluN2A NMDARs [2]; 3 μM TCN 201): 41.1 ± 1.5 | dose ratio (r) for shift in glycine potency (GluN1/GluN2A NMDARs [2]; 10 μM TCN 201): 49.0 ± 2.0 | pA2 (GluN1/GluN2A NMDARs [2]; GluN1/GluN2A NMDARs, from Schild plot intercept): 7.15 | Schild plot slope (free linear regression fit) (GluN1/GluN2A NMDARs [2]; agonist D-serine): 0.87 | allosteric constant (α) (GluN1/GluN2A NMDARs [2]; agonist D-serine, modified equation): 0.0106 | Kb (GluN1/GluN2A NMDARs [2]; agonist D-serine, modified equation, all data points, read-out: allosteric KB^# (allosteric antagonist dissociation constant)): 66 nM | Kb (GluN1/GluN2A NMDARs [2]; agonist D-serine, slope constrained to unity, first three data points, read-out: equilibrium constant (KB)): 81 nM | maximum shift in the dose ratio (= 1/α) (GluN1/GluN2A NMDARs [2]; agonist glycine): around 80 fold | Schild plot slope (free linear regression fit) (GluN1/GluN2A NMDARs [2]; agonist glycine): 0.98 | TCN 201 concentration needed to achieve the maximum dose-ratio shift (GluN1/GluN2A NMDARs [2]; agonist glycine, above limit of solubility): approximately 275 μM | allosteric constant (α) (GluN1/GluN2A NMDARs [2]; agonist glycine, modified equation): 0.0123 | Kb (GluN1/GluN2A NMDARs [2]; agonist glycine, modified equation, all data points, read-out: allosteric KB^# (allosteric antagonist dissociation constant)): 56 nM | Kb (GluN1/GluN2A NMDARs [2]; agonist glycine, slope constrained to unity, first three data points, read-out: equilibrium constant (KB)): 70 nM | potency relative to TCN 213 at GluN1/GluN2A NMDARs (GluN1/GluN2A NMDARs [2]; comparison of pA2 / equilibrium constants): around 30 times | maximum shift in the dose ratio (= 1/α) (GluN1/GluN2A NMDARs [2]; glycine or D-serine as GluN1-site agonist): 80–90 fold | block of NMDAR-mediated current (percentage of the original current magnitude) ([3]; DIV 9–10 neurones): 5 ± 2% | block of NMDAR-mediated current (percentage of the original current magnitude) ([3]; DIV 15–18 neurones): 16 ± 3% | block of NMDAR-mediated current (percentage of the original current magnitude) ([3]; GluN2A-transfected DIV 9–10 neurones): 47 ± 4% | maximum usable concentration (noticeable precipitate at higher concentrations) [4]: 10 µM

O=C(CSc1nnc(NCc2ccccc2)s1)NCC1CCCCC1 [TCN 213, N-(cyclohexylmethyl)-2-[{5-[(phenylmethyl)amino]-1,3,4-thiadiazol-2-yl}thio]acetamide]
inhibition of GluN1/GluN2A NMDAR-mediated currents (GluN1/GluN2A NMDARs [1]; glutamate 30 μM, glycine 10 μM): 44.0 ± 2.2% | inhibition of GluN1/GluN2A NMDAR-mediated currents (GluN1/GluN2A NMDARs [1]; glutamate 30 μM, glycine 30 μM): 17.3 ± 1.4% | pA2 (GluN1/GluN2A NMDARs [5]; GluN1/GluN2A NMDARs): 5.69 | Kb (GluN1/GluN2A NMDARs [5]; Schild analysis, agonist glycine, read-out: equilibrium constant (KB)): 2000 nM
